Columns and labels:
[1] = Solubility of the surfactant; settings: for solubility in aqueous solutions (concentration dissolved to) / solubility in aqueous solutions (in words): aqueous solution; for solubility (concentration dissolved to): in 50 mM ammonium bicarbonate
[2] = target: T1, Bacteriorhodopsin digested with chymotrypsin (Halobacterium salinarum, UniProt P02945); assay: Bacteriorhodopsin/Chymotrypsin digest, HPLC peak area versus RapiGest control; format: biochemical; settings: 0.025% surfactant, BR heated (boiled) with surfactant 5 minutes at 95° C., chymotrypsin 10:1, 1 hour at 37° C.; ratio to RapiGest control
T1 sequence (P02945 14-261 limits assumed): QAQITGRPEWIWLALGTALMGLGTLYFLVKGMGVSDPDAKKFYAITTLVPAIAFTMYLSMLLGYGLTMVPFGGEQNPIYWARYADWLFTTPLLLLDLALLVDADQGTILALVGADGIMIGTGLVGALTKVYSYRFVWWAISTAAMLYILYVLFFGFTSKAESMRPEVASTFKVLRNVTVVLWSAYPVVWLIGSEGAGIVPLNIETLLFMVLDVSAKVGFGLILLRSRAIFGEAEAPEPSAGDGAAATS
Protocol: Bacteriorhodopsin (25 μs) was heated with 0.025% Rapigest™ surfactant or the indicated compound of the invention for 5 minutes at 95° C., then digested with chymotrypsin (Sigma) at a 10:1 ratio in 125 μL 50 mM Ammonium bicarbonate for 1 hour at 37° C. After one hour TFA was added to 0.5-2% and the mixtures were incubated at 37° C. or 65° C. for 20 or 30 minutes. Degraded surfactant was removed by centrifugation at 14,000×g for 5 minutes. An aliquot of 50-100 μL of digested protein was analyzed by HPLC as described above.
Compound 3211, 3212, 3224 and Rapigest™ surfactant control for FIG. 13C reactions: Bacteriorhodopsin (25 μs) was solubilized with 0.025% compound of interest for 1-2 minutes at room temperature, then digested with chymotrypsin (Sigma) at a 10:1 ratio in 125 μL 50 mM Ammonium bicarbonate for 1 hour at 37° C. After one hour TFA was added to 0.5-2% and the mixtures were incubated at 37° C. or 65° C. for 20 or 30 minutes. Degraded surfactant was removed by centrifugation at 14,000×g for 5 minutes. An aliquot of 50-100 μL of digested protein was analyzed by HPLC as described above.
(§1) For each compound numbered below in Example 12, the rate of enhanced digestion was determined from the ratio of the surfactant peak area (surfactant # Pk. Area) to the Rapigest™ surfactant peak area (RG Pk area). Peak area was determined as the sum of all peaks integrated from 8-22 minutes.

[3] = target: T2, Myoglobin from horse heart digested with trypsin (Equus caballus, UniProt P68082); assay: Myoglobin/Trypsin digest, HPLC peak area versus RapiGest control; format: biochemical; settings: 0.01% surfactant, trypsin 50:1, 20 minutes at 37° C.; ratio to RapiGest control, >1 = more digestion
T2 construct: Myoglobin from horse heart; from tissue; host or cells: horse heart
T2 sequence (P68082 2-154 limits assumed): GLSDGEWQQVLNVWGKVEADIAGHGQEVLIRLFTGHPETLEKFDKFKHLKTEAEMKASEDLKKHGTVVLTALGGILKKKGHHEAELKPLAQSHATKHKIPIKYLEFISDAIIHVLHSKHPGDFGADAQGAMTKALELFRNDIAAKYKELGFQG
Protocol: Myoglobin from horse heart (typically 25 μs) was digested with trypsin (Promega) at a 50:1 ratio in a volume of 125 μL (typical) of 50 mM Ammonium bicarbonate for 20 minutes at 37° C. with 0.01% RapiGest™ surfactant or 0.01% of the indicated compound of the invention (upper and lower chromatograms, respectively). TFA was added to 0.5-2% and the mixtures were incubated at 37° C. or 65° C. for 20 or 30 minutes. Degraded surfactant was removed by centrifugation at 14,000×g for 5 minutes. HPLC analysis was performed on a 25-50 μL reaction sample using an HP1050 LC system with an Agilent Sorbax SB-C18 column (3.0×100 mm, 3.5 micron) and a gradient of 0.1% TFA (97.5% initial) and Acetonitrile, 0.01% TFA (55% final condition followed by a 100% wash step) and a flow rate of 0.75 mL/min. Peptides were detected at 214 and 280 nm.
as §1

[4] = Acid and thermal degradation of the surfactant; settings: for degradation after overnight incubation (in words): concentration not given; for degradation by acid (0.5% TFA) or by heat (boiling), in words: 3236: 0.1% solution in 0.5% TFA 30 minutes at 37° C. or 5 minutes of boiling without TFA; for acid-lability (in words): 0.5% TFA at 37° C. where stated (3237: 30 minutes), 3271 by TLC analysis; for thermolability (in words): 3266: 5 minutes at 95° C.
[5] = Hydrolytic stability in 50 mM ammonium bicarbonate (reverse-phase HPLC); format: physicochemical; parameters: key: >>: compound 100% stable over course of experiment
Protocol: Hydrolytic stability was measured by monitoring the change in retention time of the intact surfactant by reverse-phase HPLC. The ½-life is defined as the time required to reach 50% degradation.

[6] = surfactant conc. 0.025% in 50 mM ammonium bicarbonate
[7] = surfactant conc. 1% in 50 mM ammonium bicarbonate

CCCCCCCCCCOc1ccc(C(OCCc2ccc(N(CCCCS(=O)(=O)[O-])CCCCS(=O)(=O)[O-])cc2)(c2ccccc2)c2ccc(OC)cc2)cc1.[Na+].[Na+] (stereo not shown) [Compound 3219]
solubility in aqueous solutions (concentration dissolved to) [1]: 1%

CCCCCCCCCCCc1ccc(C(OCCc2ccc(N(CCCCS(=O)(=O)[O-])CCCCS(=O)(=O)[O-])cc2)(c2ccccc2)c2ccc(OCCCCCCCCCC)cc2)cc1.[Na+].[Na+] (stereo not shown) [Compound 3216]
surfactant Pk area/RG Pk area, Bacteriorhodopsin/Chymotrypsin digest [2]: 0.7 | solubilized in DMSO to ([1]; 100% DMSO): 10% | solubility in aqueous solutions (in words) [1]: Insoluble in aqueous solutions

CCCCCCCCCCCC(C)(C)OC(=O)Oc1ccc(NCCCCS(=O)(=O)O)cc1 [Compound 3195]
surfactant Pk area/RG Pk area, Myoglobin/Trypsin digest [3]: 0.5 | solubility in aqueous solutions (concentration dissolved to) [1]: not more than 0.2% | degradation after overnight incubation (in words) [4]: No degradation was observed even after overnight incubation

CCCCCCCC(C)(C)OC(=O)Oc1ccc(NCCCS(=O)(=O)[O-])cc1.[Na+] [Compound 3210]
surfactant Pk area/RG Pk area, Myoglobin/Trypsin digest [3]: 0.3 | solubility in aqueous solutions (concentration dissolved to) [1]: 0.5% | degradation rate (grade in words) [4]: moderate

CCCCCC/C=C/C(C)OC(=O)NCCCS(=O)(=O)O (stereo not shown) [Compound 3201]
surfactant Pk area/RG Pk area, Myoglobin/Trypsin digest [3]: 0.3 | surfactant Pk area/RG Pk area, Bacteriorhodopsin/Chymotrypsin digest [2]: 0.4 | solubility in aqueous solutions (concentration dissolved to) [1]: 0.5%

CCCCCCCCCCC(OC(=O)NCCCS(=O)(=O)O)c1ccc(Br)o1 (stereo not shown) [Compound 3270]
surfactant Pk area/RG Pk area, Myoglobin/Trypsin digest [3]: 0.8 | ½-life [5, 6]: 6.5 h | ½-life [5, 7]: 40 h | solubility in aqueous solutions (concentration dissolved to) [1]: 0.5%

CCCCCCC(OC(=O)NCCCS(=O)(=O)O)c1ccc(C(F)(F)F)cc1 (stereo not shown) [Compound 3199]
surfactant Pk area/RG Pk area, Myoglobin/Trypsin digest [3]: 0.37 | solubility in aqueous solutions (concentration dissolved to) [1]: 0.5% | degradation after overnight incubation (in words) [4]: No degradation was observed even after overnight incubation

CCCCCCCCCCC(OC(=O)NCCCS(=O)(=O)O)c1cccs1 (stereo not shown) [Compound 3269]
surfactant Pk area/RG Pk area, Myoglobin/Trypsin digest [3]: 1 | ½-life ([5]; surfactant conc. 0.03% in 50 mM ammonium bicarbonate): 7 h | ½-life [5, 7]: 135 h | solubility in aqueous solutions (concentration dissolved to) [1]: 1%

CCCCCCCCCCCCC(OC(=O)NCCCS(=O)(=O)O)c1cc(OC)c(OC)c(OC)c1 (stereo not shown) [Compound 3267]
surfactant Pk area/RG Pk area, Myoglobin/Trypsin digest [3]: 0.9 | solubility (concentration dissolved to) [1]: 2% | degradation by acid (0.5% TFA) or by heat (boiling), in words [4]: Did not degrade in 0.5% TFA or by boiling

CCCCCC(OC(=O)SCCS(=O)(=O)O)c1ccccc1 (stereo not shown) [Compound 3207]
solubility in aqueous solutions (concentration dissolved to) [1]: 0.5% | time to degradation of 0.01% solution ([4]; 37° C. where stated): ≤ 60 min

CCCCCC(OC(=O)NCCCS(=O)(=O)O)c1ccccc1 (stereo not shown) [Compound 3190]
surfactant Pk area/RG Pk area, Bacteriorhodopsin/Chymotrypsin digest [2]: 0.34 | solubility in aqueous solutions (concentration dissolved to) [1]: 0.5% | time to degradation of 0.01% solution ([4]; 37° C. where stated): 30 min | degradation of 0.1% solution (in words) [4]: overnight

CCCCCC/C=C/C(C)OC(=O)NCC(O)CS(=O)(=O)[O-].[Na+] (stereo not shown) [Compound 3203]
surfactant Pk area/RG Pk area, Bacteriorhodopsin/Chymotrypsin digest [2]: 0.4 | solubility in aqueous solutions (concentration dissolved to) [1]: 0.5% | degradation of 0.1% solution (in words) [4]: degraded after overnight incubation

CCCCCCCCCCCCOc1ccc(/C=N/CCCS(=O)(=O)O)cc1 [Compound 3221]
surfactant Pk area/RG Pk area, Myoglobin/Trypsin digest [3]: 0.13 | surfactant Pk area/RG Pk area, Bacteriorhodopsin/Chymotrypsin digest [2]: 0.5 | solubility in aqueous solutions (concentration dissolved to) [1]: 0.5%

CCCCCCCCCCCC(C)(C)OC(=O)Oc1ccc(N(CCCCS(=O)(=O)[O-])CCCCS(=O)(=O)O)cc1.[Na+] [Compound 3196]
surfactant Pk area/RG Pk area, Myoglobin/Trypsin digest [3]: 0.65 | solubility in aqueous solutions (concentration dissolved to) [1]: 0.5% | time to degradation of 0.01% solution ([4]; 37° C. where stated): 30 min | degradation of 0.1% solution (in words) [4]: overnight

CCCCCCCCCCC(OC(=O)NCCCS(=O)(=O)[O-])c1ccc(OC)cc1.[Na+] (stereo not shown) [Compound 3212]
surfactant Pk area/RG Pk area, Myoglobin/Trypsin digest [3]: 1.4 | ½-life ([5]; surfactant conc. 0.0025% in 50 mM ammonium bicarbonate): 3.7 h | ½-life [5, 6]: 21 h | ½-life ([5]; surfactant conc. 0.10% in 50 mM ammonium bicarbonate): 38 h | ½-life [5, 7]: >> | solubility (concentration dissolved to) [1]: 1% | time to degradation in 0.5% TFA ([4]; 0.5% TFA, 37° C. where stated, 0.1% solution for 3220 and 3266): 15 min | time to degradation by boiling without TFA ([4]; boiling without TFA): 5 min

CCCCCCCCCCC(OC(=O)NCCCS(=O)(=O)O)c1ccsc1 (stereo not shown) [Compound 3273]
surfactant Pk area/RG Pk area, Myoglobin/Trypsin digest [3]: 0.75 | solubility in aqueous solutions (concentration dissolved to) [1]: 1% | acid-lability (in words) [4]: Just partially acid-labile | thermolability (in words) [4]: thermostable

CCCCCCCCCCC(OC(=O)NCCCS(=O)(=O)O)c1ccoc1 (stereo not shown) [Compound 3271]
surfactant Pk area/RG Pk area, Myoglobin/Trypsin digest [3]: 0.9 | ½-life [5, 6]: >350 h | ½-life [5, 7]: >> | solubility in aqueous solutions (concentration dissolved to) [1]: 1% | acid-lability (in words) [4]: Just partially acid-labile | thermolability (in words) [4]: thermostable

CCCCCCCCCCC(OC(=O)NCCCS(=O)(=O)O)c1ccc(C(F)(F)F)o1 (stereo not shown) [Compound 3275]
surfactant Pk area/RG Pk area, Myoglobin/Trypsin digest [3]: 0.2 | ½-life [5, 6]: >300 h | ½-life [5, 7]: >> | solubility in aqueous solutions (concentration dissolved to) [1]: 1% | degradation by acid (0.5% TFA) or by heat (boiling), in words [4]: Fully acid- and thermostable at the tested conditions

CCCCCC/C=C/C(C)OC(=O)Oc1ccc(NCCCS(=O)(=O)[O-])cc1.[Na+] (stereo not shown) [Compound 3209]
surfactant Pk area/RG Pk area, Myoglobin/Trypsin digest [3]: 2.1 | solubility in aqueous solutions (concentration dissolved to) [1]: 0.5% | degradation after overnight incubation (in words) [4]: No degradation was observed even after overnight incubation

CCCCCCOc1ccc(COC(=O)NCCCS(=O)(=O)O)cc1 [Compound 3186]
surfactant Pk area/RG Pk area, Bacteriorhodopsin/Chymotrypsin digest [2]: 0.45 | solubility in aqueous solutions (in words) [1]: some solubility in aqueous solution | time to degradation of 0.01% solution ([4]; 37° C. where stated): ≤ 30 min

CCCCCCCCCCC(OC(=O)NCCCS(=O)(=O)O)c1ccc(Cl)o1 (stereo not shown) [Compound 3274]
surfactant Pk area/RG Pk area, Myoglobin/Trypsin digest [3]: 1 | ½-life [5, 6]: ~6 h | solubility in aqueous solutions (concentration dissolved to) [1]: 1% | degradation by acid (0.5% TFA) or by heat (boiling), in words [4]: Acid- and thermolabile
